Experimental data from patent US7928060B2, “Amylin family polypeptide-6 (AFP-6) analogs and methods of making and using them” (Amylin Pharmaceuticals, Inc., priority 2004, dated 2011).
Bridge positions count the residues as written; N and C are the ends. Peptide text beside a SMILES is read from it.

Columns and labels:
[1] = biological target: T1, calcitonin receptor (Rattus norvegicus, UniProt P32214); experiment: calcitonin receptor binding assay (rCalcitonin RBA); conditions: Table 6; read-out: CT receptor binding
T1 sequence (P32214 25-516): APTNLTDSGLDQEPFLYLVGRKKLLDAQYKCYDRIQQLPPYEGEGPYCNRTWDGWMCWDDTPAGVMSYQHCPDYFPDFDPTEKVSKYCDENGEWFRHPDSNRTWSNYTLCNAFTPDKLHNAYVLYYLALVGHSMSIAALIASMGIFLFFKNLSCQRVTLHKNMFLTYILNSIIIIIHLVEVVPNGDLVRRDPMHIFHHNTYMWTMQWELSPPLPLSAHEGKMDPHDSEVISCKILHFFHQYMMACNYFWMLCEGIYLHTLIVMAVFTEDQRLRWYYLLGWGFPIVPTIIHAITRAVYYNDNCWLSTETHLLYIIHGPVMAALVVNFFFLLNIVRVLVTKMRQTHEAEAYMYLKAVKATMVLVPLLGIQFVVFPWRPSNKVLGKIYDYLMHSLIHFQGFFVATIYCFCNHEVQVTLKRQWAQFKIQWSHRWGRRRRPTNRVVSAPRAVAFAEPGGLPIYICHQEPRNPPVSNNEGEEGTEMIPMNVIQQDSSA

[2] = biological target: adrenomedullin receptor (Homo sapiens, UniProt O60895+Q16602); experiment: adrenomedullin (ADM) receptor binding assay; conditions: Table 6
Chain of adrenomedullin receptor (Q16602 23-461): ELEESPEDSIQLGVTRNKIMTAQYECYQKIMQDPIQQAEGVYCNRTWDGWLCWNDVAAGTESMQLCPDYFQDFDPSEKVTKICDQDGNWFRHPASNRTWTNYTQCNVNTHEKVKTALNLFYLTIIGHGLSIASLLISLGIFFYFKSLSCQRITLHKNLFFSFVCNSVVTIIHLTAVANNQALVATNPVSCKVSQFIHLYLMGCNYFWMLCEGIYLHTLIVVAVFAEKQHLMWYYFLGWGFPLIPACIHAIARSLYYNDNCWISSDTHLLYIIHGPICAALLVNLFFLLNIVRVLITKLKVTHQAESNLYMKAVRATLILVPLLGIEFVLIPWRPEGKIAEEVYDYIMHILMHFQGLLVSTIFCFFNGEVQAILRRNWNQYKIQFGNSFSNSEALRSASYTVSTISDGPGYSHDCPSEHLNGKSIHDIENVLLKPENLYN
Chain of adrenomedullin receptor (O60895 43-175): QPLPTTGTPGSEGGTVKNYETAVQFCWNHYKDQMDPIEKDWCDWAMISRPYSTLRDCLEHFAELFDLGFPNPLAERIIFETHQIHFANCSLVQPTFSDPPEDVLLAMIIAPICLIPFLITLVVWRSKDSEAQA

| IC50 [1] | IC50 [2] | Structure (SMILES) |
| --- | --- | --- |
| 55 nM | 7.1 nM | CSCC[C@H](NC(=O)[C@H](CC(C)C)NC(=O)[C@H](CCC(N)=O)NC(=O)[C@H](Cc1c[nH]c2ccccc12)NC(=O)[C@H](CC(C)C)NC(=O)[C@H](CCCNC(=N)N)NC(=O)[C@H](Cc1c[nH]cn1)NC(=O)[C@H](CO)NC(=O)[C@H](CC(C)C)NC(=O)[C@H](CC(N)=O)NC(=O)[C@H](CCC(N)=O)NC(=O)[C@@H](NC(=O)[C@H](CCC(N)=O)NC(=O)[C@@H]1CSSC[C@H](NC(=O)CNC(=O)[C@@H](NC(=O)[C@@H](N)CCCNC(=N)N)C(C)C)C(=O)N[C@@H](C(C)C)C(=O)N[C@@H](CC(C)C)C(=O)NCC(=O)N[C@@H]([C@@H](C)O)C(=O)N1)C(C)C)C(=O)NCC(=O)N1CCC[C@H]1C(=O)N[C@@H](C)C(=O)NCC(=O)N[C@@H](CCCNC(=N)N)C(=O)N[C@@H](CCC(N)=O)C(=O)N[C@@H](CC(=O)O)C(=O)N[C@@H](CO)C(=O)N[C@@H](C)C(=O)N1CCC[C@H]1C(=O)N[C@H](C(=O)N[C@@H](CC(=O)O)C(=O)N1CCC[C@H]1C(=O)N[C@@H](CO)C(=O)N[C@@H](CO)C(=O)N1CCC[C@H]1C(=O)N[C@@H](Cc1c[nH]cn1)C(=O)N[C@@H](CO)C(=O)N[C@@H](Cc1ccc(O)cc1)C(N)=O)C(C)C [compound 10] |
| 27 nM | 11 nM | CSCC[C@H](NC(=O)[C@H](CC(C)C)NC(=O)[C@H](CCC(N)=O)NC(=O)[C@H](Cc1c[nH]c2ccccc12)NC(=O)[C@H](CC(C)C)NC(=O)[C@H](CCCNC(=N)N)NC(=O)[C@H](Cc1c[nH]cn1)NC(=O)[C@H](CO)NC(=O)[C@H](CC(C)C)NC(=O)[C@H](CC(N)=O)NC(=O)[C@H](CCC(N)=O)NC(=O)[C@@H](NC(=O)[C@H](CCC(N)=O)NC(=O)[C@@H]1CSSC[C@H](NC(=O)CN)C(=O)N[C@@H](C(C)C)C(=O)N[C@@H](CC(C)C)C(=O)NCC(=O)N[C@@H]([C@@H](C)O)C(=O)N1)C(C)C)C(=O)NCC(=O)N1CCC[C@H]1C(=O)N[C@@H](C)C(=O)NCC(=O)N[C@@H](CCCNC(=N)N)C(=O)N[C@@H](CCC(N)=O)C(=O)N[C@@H](CC(=O)O)C(=O)N[C@@H](CO)C(=O)N[C@@H](C)C(=O)N1CCC[C@H]1C(=O)N[C@H](C(=O)N[C@@H](CC(=O)O)C(=O)N1CCC[C@H]1C(=O)N[C@@H](CO)C(=O)N[C@@H](CO)C(=O)N1CCC[C@H]1C(=O)N[C@@H](Cc1c[nH]cn1)C(=O)N[C@@H](CO)C(=O)N[C@@H](Cc1ccc(O)cc1)C(N)=O)C(C)C [compound 11] (H-GCVLGTCQVQNLSHRLWQLMGPAGRQDSAPVDPSSPHSY-NH2; disulfide 2-7 (inferred); N-terminus assumed) |
| 198 nM | 18 nM | CSCC[C@H](NC(=O)[C@H](CC(C)C)NC(=O)[C@H](CCC(N)=O)NC(=O)[C@H](Cc1c[nH]c2ccccc12)NC(=O)[C@H](CC(C)C)NC(=O)[C@H](CCCNC(=N)N)NC(=O)[C@H](Cc1c[nH]cn1)NC(=O)[C@H](CO)NC(=O)[C@H](CC(C)C)NC(=O)[C@H](CC(N)=O)NC(=O)[C@H](CCC(N)=O)NC(=O)[C@@H](NC(=O)[C@H](CCC(N)=O)NC(=O)[C@@H]1CSSC[C@H](N)C(=O)N[C@@H](C(C)C)C(=O)N[C@@H](CC(C)C)C(=O)NCC(=O)N[C@@H]([C@@H](C)O)C(=O)N1)C(C)C)C(=O)NCC(=O)N1CCC[C@H]1C(=O)N[C@@H](C)C(=O)NCC(=O)N[C@@H](CCCNC(=N)N)C(=O)N[C@@H](CCC(N)=O)C(=O)N[C@@H](CC(=O)O)C(=O)N[C@@H](CO)C(=O)N[C@@H](C)C(=O)N1CCC[C@H]1C(=O)N[C@H](C(=O)N[C@@H](CC(=O)O)C(=O)N1CCC[C@H]1C(=O)N[C@@H](CO)C(=O)N[C@@H](CO)C(=O)N1CCC[C@H]1C(=O)N[C@@H](Cc1c[nH]cn1)C(=O)N[C@@H](CO)C(=O)N[C@@H](Cc1ccc(O)cc1)C(N)=O)C(C)C [compound 12] (H-CVLGTCQVQNLSHRLWQLMGPAGRQDSAPVDPSSPHSY-NH2; disulfide 1-6 (inferred); N-terminus assumed) |
| > 1000 nM | 304 nM | CC(C)C[C@H](NC(=O)[C@H](CCC(N)=O)NC(=O)[C@H](C)NC(=O)[C@H](CCC(N)=O)NC(=O)[C@@H](N)[C@@H](C)O)C(=O)N[C@@H](CC(C)C)C(=O)N[C@@H](CCCNC(=N)N)C(=O)N[C@H](C(=O)NCC(=O)N[C@H]1CSSC[C@@H](C(=O)N[C@@H](CCC(N)=O)C(=O)N[C@H](C(=O)N[C@@H](CCC(N)=O)C(=O)N[C@@H](CC(N)=O)C(=O)N[C@@H](CC(C)C)C(=O)N[C@@H](CO)C(=O)N[C@@H](Cc2c[nH]cn2)C(=O)N[C@@H](CCCNC(=N)N)C(=O)N[C@@H](CC(C)C)C(=O)N[C@@H](Cc2c[nH]c3ccccc23)C(=O)N[C@@H](CCC(N)=O)C(=O)N[C@@H](CC(C)C)C(=O)N[C@@H](CC(=O)O)C(=O)N[C@@H](CO)C(=O)N[C@@H](C)C(=O)N2CCC[C@H]2C(=O)N[C@H](C(=O)N[C@@H](CC(=O)O)C(=O)N2CCC[C@H]2C(=O)N[C@@H](CO)C(=O)N[C@@H](CO)C(=O)N2CCC[C@H]2C(=O)N[C@@H](Cc2c[nH]cn2)C(=O)N[C@@H](CO)C(=O)N[C@@H](Cc2ccc(O)cc2)C(N)=O)C(C)C)C(C)C)NC(=O)[C@H]([C@@H](C)O)NC(=O)CNC(=O)[C@H](CC(C)C)NC(=O)[C@H](C(C)C)NC1=O)C(C)C [compound 17] (H-TQAQLLRVGCVLGTCQVQNLSHRLWQLDSAPVDPSSPHSY-NH2; disulfide 10-15 (inferred); N-terminus assumed) |
| 17 nM | – | CC(C)C[C@H](NC(=O)[C@H](CCC(N)=O)NC(=O)[C@H](Cc1c[nH]c2ccccc12)NC(=O)[C@H](CC(C)C)NC(=O)[C@H](CCCNC(=N)N)NC(=O)[C@H](Cc1c[nH]cn1)NC(=O)[C@H](CO)NC(=O)[C@H](CC(C)C)NC(=O)[C@H](CC(N)=O)NC(=O)[C@H](CCC(N)=O)NC(=O)[C@@H](NC(=O)[C@H](CCC(N)=O)NC(=O)[C@@H]1CSSC[C@H](NC(=O)CN)C(=O)N[C@@H](CO)C(=O)N[C@@H](CC(N)=O)C(=O)N[C@@H](CC(C)C)C(=O)N[C@@H](CO)C(=O)N[C@@H]([C@@H](C)O)C(=O)N1)C(C)C)C(=O)N[C@@H](CCCNC(=N)N)C(=O)N[C@@H](CCC(N)=O)C(=O)N[C@@H](CC(=O)O)C(=O)N[C@@H](CO)C(=O)N[C@@H](C)C(=O)N1CCC[C@H]1C(=O)N[C@H](C(=O)N[C@@H](CCC(=O)O)C(=O)N1CCC[C@H]1C(=O)N[C@@H](CO)C(=O)N[C@@H](CO)C(=O)N1CCC[C@H]1C(=O)N[C@@H](Cc1c[nH]cn1)C(=O)N[C@@H](CO)C(=O)N[C@@H](Cc1ccc(O)cc1)C(N)=O)C(C)C [compound 38] (H-GCSNLSTCQVQNLSHRLWQLRQDSAPVEPSSPHSY-NH2; disulfide 2-8 (inferred); N-terminus assumed) |
